Reference: patent US20240327407A1, “NOVEL INHIBITORS OF AUTOTAXIN” (CADILA HEAL THCARE LIMITED, priority 2021, published 2024)

biological target: ATX (Mus musculus (Mouse), UniProt Q9R1E6); assay: Mice serum ATX inhibitory activity (IC50 determination); format: biochemical
Protocol: ATX Inhibitory activity was determined in a biochemical or whole blood assay as described previously (Bretschneider, T. et al., SLAS Discov 2017, 22, 425). The biochemical reaction consisted of 50 mM Tris (pH 8.0), 3 mM KCl, 1 mM CaCl2, 1 mM Mg Cl2, […] NaCl and 0.1% bovine serum albumin, which was supplemented with 5 nM recombinant rat ATX, 5 μM 18:1 LPC and the test compound (0.1-10 μM). The reaction was stopped at 2 h by the addition of butanol, prior to the RapidFire-MS-based analysis.
The whole blood assay consisted of 45 μL μL heparinized mice/rat whole blood and the test compound (0.12-100 μM). The reaction was stopped after 1 h at 37° C. by addition of 100 μL 40 mM disodium hydrogen phosphate buffer containing 30 mM citric acid (pH 4) and 1 μM 17:0 LPA (internal standard). Afterwards the samples were treated a described above and analysed by LC-MS/MS. The data was analyzed using graph pad prism (v 7.03) to arrive at the half-maximal inhibitory concentrations (IC50) of the test compounds.

IC50 [nM]	SMILES
9.3	COc1ccc(C2CN(C)CC23CCN(C(=O)[C@H](NC(=O)c2cc(C)ccc2F)C(C)C)CC3)cc1 (stereo partly drawn) [Compound 123, 2-fluoro-N-((2R)-1-(4-(4-methoxyphenyl)-2-methyl-2,8-diazaspiro[4.5]decan-8-yl)-3-methyl-1-oxobutan-2-yl)-5-methylbenzamide]
3.4	Cc1ccnc(C(=O)N[C@@H](C(=O)N2CCC3(CC2)CN(C)CC3c2ccc(F)cc2)C(C)C)c1 (stereo partly drawn) [Compound 129, N-((2R)-1-(4-(4-fluorophenyl)-2-methyl-2,8-diazaspiro-[4.5]decan-8-yl)-3-methyl-1-oxobutan-2-yl)-4-methylpicolinamide]
59.7	COC(=O)N1CC(c2ccc(F)cc2)C2(CCN(C(=O)[C@H](NC(=O)c3cc(C(F)(F)F)ccc3F)C(C)C)CC2)C1 (stereo partly drawn) [Compound 130, methyl 8-((2-fluoro-5-(trifluoromethyl)benzoyl)-D-valyl)-4-(4-fluorophenyl)-2,8-diazaspiro[4.5]decane-2-carboxylate]
150	CCOC(=O)N1CC(c2ccc(F)cc2)C2(CCN(C(=O)[C@H](NC(=O)c3cc(C(F)(F)F)ccc3F)C(C)C)CC2)C1 (stereo partly drawn) [Compound 131, ethyl 8-((2-fluoro-5-(trifluoromethyl)benzoyl)-D-valyl)-4-(4-fluorophenyl)-2,8-diazaspiro[4.5]decane-2-carboxylate]
1.1	CC(C)[C@@H](NC(=O)c1cc(C(F)(F)F)ccc1F)C(=O)N1CCC2(CC1)CN(C)CC2c1ccc(C(=O)O)cc1 (stereo partly drawn) [Compound 132, 4-(8-((2-fluoro-5-(trifluoromethyl)benzoyl)-D-valyl)-2-methyl-2,8-diazaspiro[4.5]decan-4-yl)benzoic acid]
12	CC(C)[C@@H](NC(=O)c1cc(C(F)(F)F)ccc1F)C(=O)N1CCC2(CC1)CN(C)C[C@@H]2c1ccc(F)cc1 [Compound 133, 2-fluoro-N-((R)-1-((R)-4-(4-fluorophenyl)-2-methyl-2,8-diazaspiro[4.5]decan-8-yl)-3-methyl-1-oxobutan-2-yl)-5-(trifluoromethyl)benzamide]
7.8	CC(C)[C@@H](NC(=O)c1cc(C(F)(F)F)ccc1F)C(=O)N1CCC2(CC1)CN(C)C[C@H]2c1ccc(F)cc1 [Compound 134, 2-fluoro-N-((R)-1-((S)-4-(4-fluorophenyl)-2-methyl-2,8-diazaspiro[4.5]decan-8-yl)-3-methyl-1-oxobutan-2-yl)-5-(trifluoromethyl)benzamide]
2.2	Cc1ccc(C2CN(C)CC23CCN(C(=O)[C@H](NC(=O)c2cc(C(F)(F)F)ccc2F)C(C)C)CC3)cc1 (stereo partly drawn) [Compound 136, 2-fluoro-N-((2R)-3-methyl-1-(2-methyl-4-(p-tolyl)-2,8-diazaspiro[4.5]decan-8-yl)-1-oxobutan-2-yl)-5-(trifluoromethyl)benzamide]
40.4	Cc1cc(C)cc(C2CN(C)CC23CCN(C(=O)[C@H](NC(=O)c2cc(C(F)(F)F)ccc2F)C(C)C)CC3)c1 (stereo partly drawn) [Compound 138, N-((2R)-1-(4-(3,5-dimethylphenyl)-2-methyl-2,8-diazaspiro[4.5]decan-8-yl)-3-methyl-1-oxobutan-2-yl)-2-fluoro-5-(trifluoromethyl)benzamide]
11.5	CN1CC(c2ccc(F)cc2)C2(CCN(C(=O)[C@H](NC(=O)c3cc(C(F)(F)F)ccc3F)c3ccccc3)CC2)C1 (stereo partly drawn) [Compound 140, 2-fluoro-N-((1R)-2-(4-(4-fluorophenyl)-2-methyl-2,8-diazaspiro[4.5]decan-8-yl)-2-oxo-1-phenylethyl)-5-(trifluoromethyl)benzamide]
4.4	CN1CC(c2ccc(F)cc2)C2(CCN(C(=O)[C@H](NC(=O)c3cc(C(F)(F)F)ccc3F)C3CCCCC3)CC2)C1 (stereo partly drawn) [Compound 142, N-((1R)-1-cyclohexyl-2-(4-(4-fluorophenyl)-2-methyl-2,8-diazaspiro[4.5]decan-8-yl)-2-oxoethyl)-2-fluoro-5-(trifluoromethyl)benzamide]
4.1	CC(C)C[C@@H](NC(=O)c1cc(C(F)(F)F)ccc1F)C(=O)N1CCC2(CC1)CN(C)CC2c1ccc(F)cc1 (stereo partly drawn) [Compound 147, 2-fluoro-N-((2R)-1-(4-(4-fluorophenyl)-2-methyl-2,8-diazaspiro[4.5]decan-8-yl)-4-methyl-1-oxopentan-2-yl)-5-(trifluoromethyl)benzamide]
47.3	CC(C)[C@@H](NC(=O)c1cc(F)ccc1F)C(=O)N1CCC2(CC1)CN(C)CC2c1ccc(F)cc1 (stereo partly drawn) [Compound 149, 2,5-difluoro-N-((2R)-1-(4-(4-fluorophenyl)-2-methyl-2,8-diazaspiro[4.5]decan-8-yl)-3-methyl-1-oxobutan-2-yl)benzamide]
130	CC(C)[C@@H](NC(=O)c1cc(Cl)ccc1Cl)C(=O)N1CCC2(CC1)CN(C)CC2c1ccc(F)cc1 (stereo partly drawn) [Compound 151, 2,5-dichloro-N-((2R)-1-(4-(4-fluorophenyl)-2-methyl-2,8-diazaspiro[4.5]decan-8-yl)-3-methyl-1-oxobutan-2-yl)benzamide]
10.2	Cc1ccnc(C(=O)N[C@@H](C(=O)N2CCC3(CC2)CN(C)CC3c2cccnc2)C(C)C)c1 (stereo partly drawn) [Compound 162, 4-methyl-N-((2R)-3-methyl-1-(2-methyl-4-(pyridin-3-yl)-2,8-diazaspiro[4.5]decan-8-yl)-1-oxobutan-2-yl)picolinamide]
3.5	CC(C)[C@@H](NC(=O)c1cc(C(F)(F)F)ccc1F)C(=O)N1CCC2(CC1)CC(=O)NCC2c1ccccc1 (stereo partly drawn) [Compound 163, 2-fluoro-N-((2R)-3-methyl-1-oxo-1-(10-oxo-7-phenyl-3,9-diazaspiro[5.5]undecan-3-yl)butan-2-yl)-5-(trifluoromethyl)benzamide]
6.5	CC(C)[C@@H](NC(=O)c1cc(C(F)(F)F)ccc1F)C(=O)N1CCC2(CC1)CC(=O)NCC2c1ccc(F)cc1 (stereo partly drawn) [Compound 164, 2-fluoro-N-((2R)-1-(7-(4-fluorophenyl)-10-oxo-3,9-diazaspiro[5.5]undecan-3-yl)-3-methyl-1-oxobutan-2-yl)-5-(trifluoromethyl)benzamide]
11.2	CC(C)[C@@H](NC(=O)c1cc(C(F)(F)F)ccc1F)C(=O)N1CCC2(CC1)CC(=O)N(C)CC2c1ccccc1 (stereo partly drawn) [Compound 174, 2-fluoro-N-((2R)-3-methyl-1-(9-methyl-10-oxo-7-phenyl-3,9-diazaspiro[5.5]undecan-3-yl)-1-oxobutan-2-yl)-5-(trifluoromethyl)benzamide]
7.5	CC(C)[C@@H](NC(=O)c1cc(C(F)(F)F)ccc1F)C(=O)N1CCC2(CC1)CC(=O)N(C)CC2c1ccc(F)cc1 (stereo partly drawn) [Compound 176, 2-fluoro-N-((2R)-1-(7-(4-fluorophenyl)-9-methyl-10-oxo-3,9-diazaspiro[5.5]undecan-3-yl)-3-methyl-1-oxobutan-2-yl)-5-(trifluoromethyl)benzamide]
17.2	CCN1CC(c2ccc(F)cc2)C2(CCN(C(=O)[C@H](NC(=O)c3cc(C(F)(F)F)ccc3F)C(C)C)CC2)CC1=O (stereo partly drawn) [Compound 177, N-((2R)-1-(9-ethyl-7-(4-fluorophenyl)-10-oxo-3,9-diazaspiro[5.5]undecan-3-yl)-3-methyl-1-oxobutan-2-yl)-2-fluoro-5-]
12	CC(C)[C@H](NC(=O)c1cc(C(F)(F)F)ccc1F)C(=O)N1CCC2(CC1)CC(=O)N(C)CC2c1ccccc1 (stereo partly drawn) [Compound 185, 2-fluoro-N-((2S)-3-methyl-1-(9-methyl-10-oxo-7-phenyl-3,9-diazaspiro-[5.5]undecan-3-yl)-1-oxobutan-2-yl)-5-(trifluoromethyl)benzamide]
15.9	Cc1ccnc(C(=O)N[C@@H](C(=O)N2CCC3(CC2)CC(=O)N(C)CC3c2ccccc2)C(C)C)c1 (some centres unmarked) [Compound 194]
9.9	CC(C)[C@@H](NC(=O)c1cc(C(F)(F)F)ccc1F)C(=O)N1CCC2(CCN(C)CC2c2ccccc2)CC1 (stereo partly drawn) [Compound 220, 2-fluoro-N-((2R)-3-methyl-1-(9-methyl-7-phenyl-3,9-diazaspiro[5.5]-undecan-3-yl)-1-oxobutan-2-yl)-5-(trifluoromethyl)benzamide]
5.1	CC(C)[C@@H](NC(=O)c1cc(C(F)(F)F)ccc1F)C(=O)N1CCC2(CCN(C)CC2c2ccc(F)cc2)CC1 (stereo partly drawn) [Compound 221, 2-fluoro-N-((2R)-1-(7-(4-fluorophenyl)-9-methyl-3,9-diazaspiro[5.5]-undecan-3-yl)-3-methyl-1-oxobutan-2-yl)-5-(trifluoromethyl)benzamide]
508	CCc1nc2c(C)cc(N3CCN(CC(=O)N4CC(O)C4)CC3)cn2c1N(C)c1nc(-c2ccc(F)cc2)c(C#N)s1 [GLPG1690]

SMILES	IC50 [nM]
CC(C)[C@@H](NC(=O)c1nn(C)c2ccccc12)C(=O)N1CCC2(CC1)CN(C)CC2c1ccc(F)cc1 (stereo partly drawn) [Compound 153, N-((2R)-1-(4-(4-fluorophenyl)-2-methyl-2,8-diazaspiro[4.5]decan-8-yl)-3-methyl-1-oxobutan-2-yl)-1-methyl-1H-indazole-3-carboxamide]	48.4
